Experimental findings from patent publication US7446225B2, “Pentafluorosulfanylphenyl-substituted benzoylguanidines, method for the production thereof, their use as a medicament or diagnostic agent, and a medicament containing these compounds” (Sanofi-aventis Deutschland GmbH, priority 2004, dated 2008) are described below.

The assay concerns the target T1, human NHE-1 (Homo sapiens, UniProt P19634).
T1 construct: expressed in transfected cells; host or cells: LAP-1 (NHE-deficient parental cell line), stably transfected, G418 selection
Briefly: FLIPR assay of pHi recovery for NHE-1 inhibition. Type of assay: cell-based. The settings on record: transfected LAP-1 cell line expressing human NHE-1, BCECF pHi recovery, read-out: NHE1 inhibition IC50. On the procedure: The inhibitory concentration IC50 for NHE-1 inhibition was determined as follows:
IC50 for NHE-1 inhibition were determined in a FLIPR assay by measurement of the recovery in pHi in transfected cell lines which express human NHE-1.
The assay was carried out in an FLIPR (fluorescent imaging plate reader) with black-walled 96-well microtiter plates with clear bases.
The growth medium for the transfected cells (Iscove+10% fetal calf serum) additionally contained G418 as selection antibiotic in order to ensure the presence of the transfected sequences.
The actual assay started with the removal of the growth medium and addition of 100 μl of loading buffer per well (5 μM BCECF-AM [2′,7′-bis(carboxyethyl)-5-(and -6-)carboxyfluorescein, acetoxymethyl ester] in 20 mM NH4Cl, 115 mM choline chloride, 1 mM MgCl2, 1 mM CaCl2, 5 mM KCl, 20 mM HEPES, 5 mM glucose; pH 7.4 [adjusted with KOH]). The cells were then incubated at 37° C. for 20 minutes. This incubation led to loading of the cells with the fluorescent dye whose fluorescence intensity depends on pHi, and with NH4Cl which makes the cells slightly alkaline. The nonfluorescent dye precursor BCECF-AM is, as ester, membrane-permeable. The actual dye BCECF is not membrane-permeable but is liberated inside cells by esterases. […]

T1 sequence (P19634 whole entry): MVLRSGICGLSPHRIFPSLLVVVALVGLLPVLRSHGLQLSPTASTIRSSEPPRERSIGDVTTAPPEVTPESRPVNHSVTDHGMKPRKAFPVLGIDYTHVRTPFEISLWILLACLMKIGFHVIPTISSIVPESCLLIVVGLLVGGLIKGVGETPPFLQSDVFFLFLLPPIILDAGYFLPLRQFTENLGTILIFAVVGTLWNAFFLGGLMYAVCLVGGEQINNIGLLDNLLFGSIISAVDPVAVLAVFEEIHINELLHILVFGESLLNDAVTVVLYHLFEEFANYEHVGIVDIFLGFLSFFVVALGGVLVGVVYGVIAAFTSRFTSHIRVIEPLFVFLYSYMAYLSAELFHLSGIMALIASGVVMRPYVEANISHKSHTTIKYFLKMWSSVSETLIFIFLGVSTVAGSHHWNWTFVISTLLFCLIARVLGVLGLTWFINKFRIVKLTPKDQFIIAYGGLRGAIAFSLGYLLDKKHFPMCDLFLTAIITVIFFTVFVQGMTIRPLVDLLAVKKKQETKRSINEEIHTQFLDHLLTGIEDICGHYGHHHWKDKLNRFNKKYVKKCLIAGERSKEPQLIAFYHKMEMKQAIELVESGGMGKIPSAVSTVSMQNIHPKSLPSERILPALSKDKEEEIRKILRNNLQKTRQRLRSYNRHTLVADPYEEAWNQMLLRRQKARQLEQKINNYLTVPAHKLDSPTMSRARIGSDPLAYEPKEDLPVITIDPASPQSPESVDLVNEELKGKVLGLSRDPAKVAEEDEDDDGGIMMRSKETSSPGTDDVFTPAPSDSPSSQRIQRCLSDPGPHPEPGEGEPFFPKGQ

Broadly, the IC50 is the point on the concentration scale where inhibition reaches its midpoint. On to `Cc1cc(Oc2ccc(S(C)(=O)=O)c(S(F)(F)(F)(F)F)c2)c(S(C)(=O)=O)cc1C(=O)N=C(N)N` [Example 1, N-[5-methanesulfonyl-4-(4-methanesulfonyl-3-pentafluorosulfanyl-phenoxy)-2-methylbenzoyl]guanidine], for which the IC50 turned out to be 0.033 µM.
